Paper PMC6280482, “The natural polyphenol curcumin induces apoptosis by suppressing STAT3 signaling in esophageal squamous cell carcinoma” (Journal of Experimental & Clinical Cancer Research : CR, 2018)
pIC50: −log10 of the molar value.

Target: JAK2 (Homo sapiens, UniProt O60674)
Assay: cell-free kinase activity assay with purified JAK2 (HotSpot, Reaction Biology)
Assay type: biochemical

Chain of JAK2 (O60674 whole entry): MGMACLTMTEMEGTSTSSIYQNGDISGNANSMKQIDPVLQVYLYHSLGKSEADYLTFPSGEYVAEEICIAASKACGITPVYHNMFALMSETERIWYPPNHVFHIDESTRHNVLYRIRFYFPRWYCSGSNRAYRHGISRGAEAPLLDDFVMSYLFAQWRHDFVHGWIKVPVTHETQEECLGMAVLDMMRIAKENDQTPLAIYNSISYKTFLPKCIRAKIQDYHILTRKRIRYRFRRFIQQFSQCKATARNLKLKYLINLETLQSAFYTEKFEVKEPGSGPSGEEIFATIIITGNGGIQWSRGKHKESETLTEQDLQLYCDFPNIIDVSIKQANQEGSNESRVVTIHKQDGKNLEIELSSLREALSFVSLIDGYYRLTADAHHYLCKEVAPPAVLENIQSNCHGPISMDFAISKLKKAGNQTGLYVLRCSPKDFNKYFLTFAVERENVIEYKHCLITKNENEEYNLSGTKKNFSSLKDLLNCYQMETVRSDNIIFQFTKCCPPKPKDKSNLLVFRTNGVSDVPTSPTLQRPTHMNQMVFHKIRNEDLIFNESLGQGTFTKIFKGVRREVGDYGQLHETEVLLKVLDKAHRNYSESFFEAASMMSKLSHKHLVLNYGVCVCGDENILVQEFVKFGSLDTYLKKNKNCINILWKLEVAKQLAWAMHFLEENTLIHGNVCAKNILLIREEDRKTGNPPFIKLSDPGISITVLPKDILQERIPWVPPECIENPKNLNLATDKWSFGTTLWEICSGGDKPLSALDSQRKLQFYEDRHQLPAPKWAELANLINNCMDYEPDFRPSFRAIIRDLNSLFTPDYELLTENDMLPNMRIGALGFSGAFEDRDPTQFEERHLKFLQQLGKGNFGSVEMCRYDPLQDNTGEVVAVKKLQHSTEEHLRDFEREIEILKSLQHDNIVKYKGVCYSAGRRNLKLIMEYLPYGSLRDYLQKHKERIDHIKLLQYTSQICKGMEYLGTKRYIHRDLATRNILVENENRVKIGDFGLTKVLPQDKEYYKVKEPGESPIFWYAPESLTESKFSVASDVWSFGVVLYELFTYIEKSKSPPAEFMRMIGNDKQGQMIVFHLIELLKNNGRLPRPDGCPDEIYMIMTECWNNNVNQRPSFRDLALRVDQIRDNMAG

COc1cc(/C=C/C(=O)CC(=O)/C=C/c2ccc(O)c(OC)c2)ccc1O [curcumin]
pIC50: ~5.10
